From PMC8132114 (ACS combinatorial science, 2019) come the findings set out here.

Test [1] concerns VH1. The test is classed as biochemical.
For test [2], the system named is VH1. The test is classed as biochemical. The source holds these as a separate data set.
Test [3] concerns the target oxime-containing phosphopeptide 6f-w202. The test can be described thus: SPR.
The target of test [4] is oxime-containing phosphopeptide 6f-w99. The test can be described thus: SPR.

*1 amine or outer side, *2 acyl side, *3 side chain or, on linkers, in order; H or OH if unused. Where a SMILES comes first, the peptide text is derived from it. [ ]: non-standard residue; d: D form. The star is where a group is joined. X1 = O=C([C@H](CCON=Cc1c(Cl)cncc1Cl)N[*:1])[*:2]; Biotin = O=C1N[C@H]2[C@H](CS[C@H]2CCCCC(=O)*)N1; pY = N[C@@H](Cc1ccc(OP(=O)(O)O)cc1)C(=O)O; Ahx = NCCCCCC(=O)O

`CC(C)[C@H](NC(=O)CCCCCNC(=O)CCCC[C@@H]1SC[C@@H]2NC(=O)N[C@@H]21)C(=O)N[C@@H](CC(=O)O)C(=O)N[C@@H](C)C(=O)N[C@@H](CC(=O)O)C(=O)N[C@@H](CCC(=O)O)C(=O)N[C@@H](Cc1ccc(OP(=O)(O)O)cc1)C(=O)N[C@@H](CCON=Cc1c(Cl)cncc1Cl)C(N)=O` [Peptide 6f-w202] ({Biotin-Ahx}-VDADE[pY][X1]-NH2) returned a percent dephosphorylation with VH1 [1] of 43%.

Consider Ac-OtGGOt-NH2 [Peptide 15], for which the “inhibition, VH1 compared with DUSP14” value in the test on VH1 [2] was “greater for VH1 than for DUSP14”.

B1: human DUSP14 C111S substrate-trapping mutant, O95147 1-198 (enzyme)
chain: MSSRGHSTLPRTLMAPRMISEGDIGGIAQITSSLFLGRGSVASNRHLLQARGITCIVNATIEIPNFNWPQFEYVKVPLADMPHAPIGLYFDTVADKIHSVSRKHGATLVHSAAGVSRSATLCIAYLMKFHNVCLLEAYNWVKARRPVIRPNVGFWRQLIDYERQLFGKSTVKMVQTPYGIVPDVYEKESRHLMPYWGI
As to B1, the Kd in test [3] amounted to 640 nM; in test [4], 94 nM.
